Reference: US20220177508A1, “C10-Cyclic Substituted 13-Membered Macrolides and Uses Thereof” (Zikani Therapeutics, Inc., priority 2018, published 2022)
Values after ≈ are worked out from the molar mass of the structure shown.

Experiments:
Assay type in all cases: cell-based
[1] = system: S. aureus MP-12; experiment: Broth dilution MIC determination (CLSI), S. aureus MP-12; settings: Staphylococcus aureus, MP12; strain MP-12, broth dilution
[2] = system: E. coli MP-4; experiment: Broth dilution MIC determination (CLSI), E. coli MP-4; settings: Escherichia coli, MP4; strain MP-4, broth dilution; read-out: MIC E. coli MP-4
[3] = system: K. pneumoniae MP-546; experiment: Broth dilution MIC determination (CLSI), K. pneumoniae MP-546; settings: Klebsiella pneumoniae, MP546; strain MP-546, broth dilution
[4] = system: P. aeruginosa MP-3; experiment: Broth dilution MIC determination (CLSI), P. aeruginosa MP-3; settings: Pseudomonas aeruginosa, MP3; strain MP-3, broth dilution
[5] = system: A. baumannii MP-15; experiment: Broth dilution MIC determination (CLSI), A. baumannii MP-15; settings: Acinetobacter baumannii, MP15; strain MP-15, broth dilution; read-out: MIC A. baumanii MP-15

SMILES	MIC [1] [µg/mL]	MIC [2] [µg/mL]	MIC [3] [µg/mL]	MIC [4] [µg/mL]	MIC [5] [µg/mL]
CO[C@]1(C)C[C@@H](C)CN(C)[C@H]([C@@H]2CCCN2)COC(=O)C(C)(C)C(=O)[C@H](C)[C@H]1O[C@@H]1O[C@H](C)C[C@H](N(C)C)[C@H]1O [Compound 65, (3R,6R,8R,9R,10R)-9-(((2S,3R,4S,6R)-4-(dimethylamino)-3-hydroxy-6-methyltetrahydro-2H-pyran-2-yl)oxy)-8-methoxy-4,6,8,10,12,12-hexamethyl-3-((S)-pyrrolidin-2-yl)-1-oxa-4-azacyclotridecane-11,13-dione]	> 32	4 to 32 (≈ 7.02 to 56.2 µM)	> 32	> 32	> 32
CO[C@]1(C)C[C@@H](C)CN(C)[C@H](C2CN(CC(=O)N3CCCC3)C2)COC(=O)C(C)(C)C(=O)[C@H](C)[C@H]1O[C@@H]1O[C@H](C)C[C@H](N(C)C)[C@H]1O [Compound 45, (3R,6R,8R,9R,10R)-9-(((2S,3R,4S,6R)-4-(dimethylamino)-3-hydroxy-6-methyltetrahydro-2H-pyran-2-yl)oxy)-8-methoxy-4,6,8,10,12,12-hexamethyl-3-(1-(2-oxo-2-(pyrrolidin-1-yl)ethyl)azetidin-3-yl)-1-oxa-4-azacyclotridecane-11,13-dione]	4 to 32 (≈ 6 to 48 µM)	< 4	4 to 32 (≈ 6 to 48 µM)	> 32	> 32
CO[C@]1(C)C[C@@H](C)CN(C)[C@H]([C@H]2CCCN(C(C)C)C2)COC(=O)C(C)(C)C(=O)[C@H](C)[C@H]1O[C@@H]1O[C@H](C)C[C@H](N(C)C)[C@H]1O [Compound 104, (3R,6R,8R,9R,10R)-9-(((2S,3R,4S,6R)-4-(dimethylamino)-3-hydroxy-6-methyltetrahydro-2H-pyran-2-yl)oxy)-3-((S)-1-isopropylpiperidin-3-yl)-8-methoxy-4,6,8,10,12,12-hexamethyl-1-oxa-4-azacyclotridecane-11,13-dione]	4 to 32 (≈ 6.39 to 51.1 µM)	< 4	4 to 32 (≈ 6.39 to 51.1 µM)	> 32	> 32
CNCC(=O)N1C2CCC1CC([C@@H]1COC(=O)C(C)(C)C(=O)[C@H](C)[C@@H](O[C@@H]3O[C@H](C)C[C@H](N(C)C)[C@H]3O)[C@](C)(OC)C[C@@H](C)CN1C)C2 (stereo partly drawn) [Compound 44, (3R,6R,8R,9R,10R)-9-(((2S,3R,4S,6R)-4-(dimethylamino)-3-hydroxy-6-methyltetrahydro-2H-pyran-2-yl)oxy)-8-methoxy-4,6,8,10,12,12-hexamethyl-3-(8-(methylglycyl)-8-azabicyclo[3.2.1]octan-3-yl)-1-oxa-4-azacyclotridecane-11,13-dione]	> 32	4 to 32 (≈ 5.87 to 47 µM)	> 32	> 32	> 32
CO[C@]1(C)C[C@@H](C)CN(C)[C@@H](C2CN(C(=O)C(C)(C)N(C)C)C2)COC(=O)C(C)(C)C(=O)[C@H](C)[C@H]1O[C@@H]1O[C@H](C)C[C@H](N(C)C)[C@H]1O [Compound 149]	> 32	< 4	4 to 32 (≈ 5.98 to 47.8 µM)	> 32	> 32
CO[C@]1(C)C[C@@H](C)CN(C)[C@H](C2CN(C(=O)CN3CCC3)C2)COC(=O)C(C)(C)C(=O)[C@H](C)[C@H]1O[C@@H]1O[C@H](C)C[C@H](N(C)C)[C@H]1O [Compound 14]	> 32	< 4	> 32	> 32	> 32
CCCN1CC([C@@H]2COC(=O)C(C)(C)C(=O)[C@H](C)[C@@H](O[C@@H]3O[C@H](C)C[C@H](N(C)C)[C@H]3O)[C@](C)(OC)C[C@@H](C)CN2C)C1 [Compound 76, (3R,6R,8R,9R,10R)-9-(((2S,3R,4S,6R)-4-(dimethylamino)-3-hydroxy-6-methyltetrahydro-2H-pyran-2-yl)oxy)-8-methoxy-4,6,8,10,12,12-hexamethyl-3-(1-propylazetidin-3-yl)-1-oxa-4-azacyclotridecane-11,13-dione]	4 to 32 (≈ 6.69 to 53.5 µM)	< 4	< 4	> 32	> 32
CO[C@]1(C)C[C@@H](C)CN(C)[C@@H]([C@H]2CCN(C(C)=O)C2)COC(=O)C(C)(C)C(=O)[C@H](C)[C@H]1O[C@@H]1O[C@H](C)C[C@H](N(C)C)[C@H]1O [Compound 140, (3S,6R,8R,9R,10R)-3-((S)-1-acetylpyrrolidin-3-yl)-9-(((2S,3R,4S,6R)-4-(dimethylamino)-3-hydroxy-6-methyltetrahydro-2H-pyran-2-yl)oxy)-8-methoxy-4,6,8,10,12,12-hexamethyl-1-oxa-4-azacyclotridecane-11,13-dione]	> 32	4 to 32 (≈ 6.54 to 52.3 µM)	> 32	> 32	> 32
CO[C@]1(C)C[C@@H](C)CN(C)[C@@H]([C@@H]2CCN(C(=O)CN(C)C)C2)COC(=O)C(C)(C)C(=O)[C@H](C)[C@H]1O[C@@H]1O[C@H](C)C[C@H](N(C)C)[C@H]1O [Compound 169, (3S,6R,8R,9R,10R)-9-(((2S,3R,4S,6R)-4-(Dimethylamino)-3-hydroxy-6-methyltetrahydro-2H-pyran-2-yl)oxy)-3-((R)-1-(dimethylglycyl)pyrrolidin-3-yl)-8-methoxy-4,6,8,10,12,12-hexamethyl-1-oxa-4-azacyclotridecane-11,13-dione]	4 to 32 (≈ 6.11 to 48.9 µM)	< 4	4 to 32 (≈ 6.11 to 48.9 µM)	> 32	> 32
CO[C@]1(C)C[C@@H](C)CN(C)[C@@H]([C@H]2CC[C@H](N(C)C)CC2)COC(=O)C(C)(C)C(=O)[C@H](C)[C@H]1O[C@@H]1O[C@H](C)C[C@H](N(C)C)[C@H]1O [Compound 137, (3S,6R,8R,9R,10R)-9-(((2S,3R,4S,6R)-4-(dimethylamino)-3-hydroxy-6-methyltetrahydro-2H-pyran-2-yl)oxy)-3-((1r,4S)-4-(dimethylamino)cyclohexyl)-8-methoxy-4,6,8,10,12,12-hexamethyl-1-oxa-4-azacyclotridecane-11,13-dione]	> 32	4 to 32 (≈ 6.39 to 51.1 µM)	4 to 32 (≈ 6.39 to 51.1 µM)	> 32	> 32
CCN1CCC[C@@H]([C@@H]2COC(=O)C(C)(C)C(=O)[C@H](C)[C@@H](O[C@@H]3O[C@H](C)C[C@H](N(C)C)[C@H]3O)[C@](C)(OC)C[C@@H](C)CN2C)C1 [Compound 117, (3R,6R,8R,9R,10R)-9-(((2S,3R,4S,6R)-4-(dimethylamino)-3-hydroxy-6-methyltetrahydro-2H-pyran-2-yl)oxy)-3-((R)-1-ethylpiperidin-3-yl)-8-methoxy-4,6,8,10,12,12-hexamethyl-1-oxa-4-azacyclotridecane-11,13-dione]	> 32	4 to 32 (≈ 6.54 to 52.3 µM)	4 to 32 (≈ 6.54 to 52.3 µM)	> 32	> 32
CO[C@]1(C)C[C@@H](C)CN(CC(C)C)[C@H](C2CN(CC(C)C)C2)COC(=O)C(C)(C)C(=O)[C@H](C)[C@H]1O[C@@H]1O[C@H](C)C[C@H](N(C)C)[C@H]1O [Compound 21, (3R,6R,8R,9R,10R)-9-(((2S,3R,4S,6R)-4-(dimethylamino)-3-hydroxy-6-methyltetrahydro-2H-pyran-2-yl)oxy)-4-isobutyl-3-(1-isobutylazetidin-3-yl)-8-methoxy-6,8,10,12,12-pentamethyl-1-oxa-4-azacyclotridecane-11,13-dione]	> 32	> 32	> 32	> 32	> 32
CCCN1C[C@H](C)C[C@@](C)(OC)[C@H](O[C@@H]2O[C@H](C)C[C@H](N(C)C)[C@H]2O)[C@@H](C)C(=O)C(C)(C)C(=O)OC[C@H]1C1CN(C(=O)CN(C)C)C1 [Compound 68, (3R,6R,8R,9R,10R)-9-(((2S,3R,4S,6R)-4-(dimethylamino)-3-hydroxy-6-methyltetrahydro-2H-pyran-2-yl)oxy)-3-(1-(dimethylglycyl)azetidin-3-yl)-8-methoxy-6,8,10,12,12-pentamethyl-4-propyl-1-oxa-4-azacyclotridecane-11,13-dione]	4 to 32 (≈ 5.98 to 47.8 µM)	< 4	4 to 32 (≈ 5.98 to 47.8 µM)	> 32	> 32
CO[C@]1(C)C[C@@H](C)CN[C@H](C2CCN(C(C)C)CC2)COC(=O)C(C)(C)C(=O)[C@H](C)[C@H]1O[C@@H]1O[C@H](C)C[C@H](N(C)C)[C@H]1O [Compound 7, (3R,6R,8R,9R,10R)-9-(((2S,3R,4S,6R)-4-(Dimethylamino)-3-hydroxy-6-methyltetrahydro-2H-pyran-2-yl)oxy)-3-(1-isopropylpiperidin-4-yl)-8-methoxy-6,8,10,12,12-pentamethyl-1-oxa-4-azacyclotridecane-11,13-dione]	4 to 32 (≈ 6.54 to 52.3 µM)	< 4	< 4	> 32	> 32
CO[C@]1(C)C[C@@H](C)CN(C)[C@H]([C@@H]2CCN(C(C)C)C2)COC(=O)C(C)(C)C(=O)[C@H](C)[C@H]1O[C@@H]1O[C@H](C)C[C@H](N(C)C)[C@H]1O [Compound 46, (3R,6R,8R,9R,10R)-9-(((2S,3R,4S,6R)-4-(Dimethylamino)-3-hydroxy-6-methyltetrahydro-2H-pyran-2-yl)oxy)-3-((R)-1-isopropylpyrrolidin-3-yl)-8-methoxy-4,6,8,10,12,12-hexamethyl-1-oxa-4-azacyclotridecane-11,13-dione]	> 32	< 4	4 to 32 (≈ 6.54 to 52.3 µM)	> 32	> 32
CCC(=O)N1CCC([C@@H]2COC(=O)C(C)(C)C(=O)[C@H](C)[C@@H](O[C@@H]3O[C@H](C)C[C@H](N(C)C)[C@H]3O)[C@](C)(OC)C[C@@H](C)CN2C)CC1 [Compound 13, (3R,6R,8R,9R,10R)-9-(((2S,3R,4S,6R)-4-(dimethylamino)-3-hydroxy-6-methyltetrahydro-2H-pyran-2-yl)oxy)-8-methoxy-4,6,8,10,12,12-hexamethyl-3-(1-propionylpiperidin-4-yl)-1-oxa-4-azacyclotridecane-11,13-dione]	4 to 32 (≈ 6.25 to 50 µM)	4 to 32 (≈ 6.25 to 50 µM)	4 to 32 (≈ 6.25 to 50 µM)	> 32	> 32
